According to PubChem BioAssay AID1259408 (Genetic Toxicology Data Bank (GENE-TOX), 2018):
Active and inactive are the calls of the source. The rule behind the calls is not given here.

Tested on: GENE-TOX genotoxicity assays, various organisms and cells
Test: GENE-TOX mutagenicity studies
Settings: for call: Assay Type: In vivo carcinogenicity studies
[1] = Species/Cell Type: Nonhuman, Assay Code: CCG+, Evaluation Type: Evaluation A (Pre-1980)
[2] = Species/Cell Type: Salmonella typhimurium (one or more of the five standard strains: TA98, TA100, TA1535, TA1537, and TA1538), Assay Type: Histidine reverse gene mutation, Ames assay, Assay Code: SAL+, Evaluation Type: Evaluation A (Pre-1980)
[3] = Species/Cell Type: Salmonella typhimurium (one or more of the five standard strains: TA98, TA100, TA1535, TA1537, and TA1538), Assay Type: Histidine reverse gene mutation, Ames assay, Assay Code: SALT, Evaluation Type: Evaluation A (Pre-1980)
[4] = Species/Cell Type: Nonhuman, Assay Type: Sister-chromatid exchange (SCE) in vitro, Assay Code: SC2T, Evaluation Type: Evaluation B (Post-1980)
[5] = Species/Cell Type: Human lymphocytes, Assay Type: Sister-chromatid exchange (SCE) in vitro, Assay Code: SCL+D, Dose Response: With dose response, Evaluation Type: Evaluation B (Post-1980)
[6] = Species/Cell Type: Human, Assay Type: Sister-chromatid exchange (SCE) in vitro, Assay Code: SC1+D, Dose Response: With dose response, Evaluation Type: Evaluation B (Post-1980)

In the case of `Cc1c2ccccc2c2ccc3cccc4ccc1c2c43`, the mutagenic call (Species/Cell Type: Chinese hamster lung (V79) cells, Assay Type: Forward gene mutation at the HPRT or ouabain locus, Assay Code: V79+*, Activation: With metabolic activation, Evaluation Type: Evaluation A (Pre-1980)) is reported as “active; positive” and the call [1] is reported as “active; positive”.

With `[N-]=[N+]=CC(=O)NCC(=O)NN` the mutagenic call [2] was “active; positive”.

`COc1cc2c3cc1Oc1cc(ccc1O)C[C@@H]1c4c(cc(OC)c(O)c4Oc4ccc(cc4)C[C@@H]3N(C)CC2)CC[N+]1(C)C` was tested, and the mutagenic call (Species/Cell Type: Escherichia coli polA (W3119 vs P3478), Assay Type: Rec-assay, DNA effects (bacterial DNA repair), Assay Code: RE1T, Evaluation Type: Evaluation A (Pre-1980)) was “no conclusion” and the mutagenic call [3] was “no conclusion”.

With `COc1cc2c(c3oc(=O)c4c(c13)CCC4=O)[C@@H]1C[C@H](O)O[C@@H]1O2` the mutagenic call [3] was “no conclusion”.

`CCN(CC)N=Nc1ccccc1` was tested, and the mutagenic call (Species/Cell Type: Mammalian polychromatic erythrocytes, Assay Type: Micronucleus test, chromosome aberrations, Assay Code: MNT+, Evaluation Type: Evaluation A (Pre-1980)) was “active; positive” and the call (Species/Cell Type: Nonhuman, Assay Code: CCG+L, Evaluation Type: Evaluation A (Pre-1980)) was “active; positive”.

`CC#CC#CC#Cc1ccccc1` was tested, and the mutagenic call [4] was “no conclusion”.

In the case of `S=C1NCCN1`, the mutagenic call (Species/Cell Type: Escherichia coli WP2, Assay Type: Tryptophan reverse gene mutation, Assay Code: WP2-, Evaluation Type: Evaluation A (Pre-1980)) is reported as “inactive; negative”, the mutagenic call (Species/Cell Type: Escherichia coli WP2 UVRA, Assay Type: Tryptophan reverse gene mutation, Assay Code: WPU-, Evaluation Type: Evaluation A (Pre-1980)) is reported as “inactive; negative” and the mutagenic call (Species/Cell Type: Mammalian polychromatic erythrocytes, Assay Type: Micronucleus test, chromosome aberrations, Assay Code: MNTT, Evaluation Type: Evaluation A (Pre-1980)) is reported as “no conclusion”. The mutagenic call (Species/Cell Type: Mouse, Sex: Male, Assay Type: Sperm morphology, Assay Code: SPI-, Evaluation Type: Evaluation A (Pre-1980)) was “inactive; negative”, the call [1] was “active; positive” and the mutagenic call [4] was “no conclusion”. The mutagenic call (Species/Cell Type: Rodents, Sex: Male, Assay Type: Dominant lethal test, Assay Code: DLT+, Evaluation Type: Evaluation A (Pre-1980)) was “active; positive”, the mutagenic call [2] was “active; positive” and the mutagenic call (Species/Cell Type: Salmonella typhimurium, Assay Type: Forward and reverse gene mutation, host-mediated assay, Assay Code: HMA+, Evaluation Type: Evaluation A (Pre-1980)) was “active; positive”. The mutagenic call (Species/Cell Type: Syrian hamster embryo (SA7/SHE) cells, Assay Type: Cell transformation, viral enhanced, Assay Code: CT7-, Evaluation Type: Evaluation A (Pre-1980)) was “inactive; negative” and the mutagenic call (Species/Cell Type: Tradescantia species, Assay Type: Gene mutation, Assay Code: TRM+D, Dose Response: With dose response, Evaluation Type: Evaluation A (Pre-1980)) was “active; positive”.

In the case of `NC(Cc1cccc(F)c1)C(=O)O` (centres undefined), the mutagenic call (Species/Cell Type: Neurospora crassa, Assay Type: Aneuploidy, chromosome aberrations, Assay Code: NEN-, Evaluation Type: Evaluation A (Pre-1980)) is reported as “inactive; negative”.

For `CCCCSP(=O)(SCCCC)SCCCC`, the mutagenic call (Species/Cell Type: Nonhuman, Assay Type: Sister-chromatid exchange (SCE) in vitro, Assay Code: SC2-, Evaluation Type: Evaluation B (Post-1980)) was “inactive; negative”.

In the case of `O=S1(=O)OC(c2cc(Br)c(O)c(Br)c2)(c2cc(Br)c(O)c(Br)c2)c2ccccc21`, the mutagenic call [3] is reported as “no conclusion”.

For `CC1(C)[C@H]2CC[C@]1(C)[C@H](O)C2`, the mutagenic call (Species/Cell Type: Saccharomyces cerevisiae, Assay Type: Mitotic recombination or gene conversion, Assay Code: YEH-, Evaluation Type: Evaluation A (Pre-1980)) was “inactive; negative” and the mutagenic call (Species/Cell Type: Salmonella typhimurium (one or more of the five standard strains: TA98, TA100, TA1535, TA1537, and TA1538), Assay Type: Histidine reverse gene mutation, Ames assay, Assay Code: SAL-, Evaluation Type: Evaluation A (Pre-1980)) was “inactive; negative”.

With `Oc1c(Cl)cc(Cl)c(Cl)c1Cc1c(O)c(Cl)cc(Cl)c1Cl` the mutagenic call (Species/Cell Type: Mammalian polychromatic erythrocytes, Assay Type: Micronucleus test, chromosome aberrations, Assay Code: MNTT, Evaluation Type: Evaluation B (Post-1980)) was “no conclusion”.

For `COc1ccc(/C=C/Cl)cc1`, the mutagenic call [5] was “active; positive” and the mutagenic call [6] was “active; positive”.

For `BrC(Br)Br`, the mutagenic call [5] was “active; positive”, the mutagenic call [6] was “active; positive” and the mutagenic call (Species/Cell Type: Nonhuman, Assay Type: Sister-chromatid exchange (SCE) in vitro, Assay Code: SC2+D, Dose Response: With dose response, Evaluation Type: Evaluation B (Post-1980)) was “active; positive”. For the same compound, the mutagenic call (Species/Cell Type: Nonhuman, Assay Type: Sister-chromatid exchange (SCE) in vivo, Assay Code: SC3+D, Dose Response: With dose response, Evaluation Type: Evaluation B (Post-1980)) was “active; positive”.

In the case of `O=[N+]([O-])c1ccc(O)c([N+](=O)[O-])c1`, the mutagenic call (Species/Cell Type: Allium cepa, Assay Type: Chromosome aberrations, Assay Code: ALC+, Evaluation Type: Evaluation A (Pre-1980)) is reported as “active; positive” and the mutagenic call (Species/Cell Type: Arabidopsis species, Assay Type: Gene mutation, Assay Code: ARM-, Evaluation Type: Evaluation A (Pre-1980)) is reported as “inactive; negative”.
